Patent US6753337B2, “Alkynyl containing hydroxamic acid compounds as matrix metalloproteinase/tace inhibitors” (Wyeth Holdings Corporation, priority 1999, dated 2004)
Counter-ions that a name gives are not always drawn.

Key:
THP-1 cells = test: Human monocytic THP-1 cell differentiation assay for soluble proteins (THP-1 soluble protein assay); assay type: cell-based; conditions: LPS-stimulated THP-1 cells, soluble protein not given
MMP-9 = MMP-9 (Homo sapiens, UniProt P14780); test: MMP-9 inhibition (thiopeptide or fluorescent peptide substrate); assay type: biochemical; conditions: read-out: MMP9 IC50
MMP-9, sequence (P14780 94-707): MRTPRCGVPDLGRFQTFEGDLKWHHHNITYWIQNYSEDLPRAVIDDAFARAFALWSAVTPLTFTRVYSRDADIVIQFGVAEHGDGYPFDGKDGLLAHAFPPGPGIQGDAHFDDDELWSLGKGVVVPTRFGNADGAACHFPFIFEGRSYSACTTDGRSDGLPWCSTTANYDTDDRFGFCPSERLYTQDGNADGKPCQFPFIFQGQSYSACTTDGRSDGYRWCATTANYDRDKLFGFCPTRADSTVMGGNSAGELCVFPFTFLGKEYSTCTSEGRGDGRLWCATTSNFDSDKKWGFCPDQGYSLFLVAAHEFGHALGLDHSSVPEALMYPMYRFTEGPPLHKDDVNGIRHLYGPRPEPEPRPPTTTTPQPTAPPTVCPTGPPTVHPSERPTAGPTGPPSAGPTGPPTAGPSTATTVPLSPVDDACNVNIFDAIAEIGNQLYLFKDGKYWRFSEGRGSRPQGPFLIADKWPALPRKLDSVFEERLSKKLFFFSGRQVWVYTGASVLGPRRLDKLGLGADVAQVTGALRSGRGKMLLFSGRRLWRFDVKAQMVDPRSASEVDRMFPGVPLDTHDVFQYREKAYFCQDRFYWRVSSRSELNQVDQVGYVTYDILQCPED

MMP-1 = target: T1, MMP-1 (Homo sapiens, UniProt P03956); test: MMP-1 inhibition (thiopeptide or fluorescent peptide substrate); assay type: biochemical; conditions: read-out: MMP1 IC50
T1 sequence (P03956 100-469): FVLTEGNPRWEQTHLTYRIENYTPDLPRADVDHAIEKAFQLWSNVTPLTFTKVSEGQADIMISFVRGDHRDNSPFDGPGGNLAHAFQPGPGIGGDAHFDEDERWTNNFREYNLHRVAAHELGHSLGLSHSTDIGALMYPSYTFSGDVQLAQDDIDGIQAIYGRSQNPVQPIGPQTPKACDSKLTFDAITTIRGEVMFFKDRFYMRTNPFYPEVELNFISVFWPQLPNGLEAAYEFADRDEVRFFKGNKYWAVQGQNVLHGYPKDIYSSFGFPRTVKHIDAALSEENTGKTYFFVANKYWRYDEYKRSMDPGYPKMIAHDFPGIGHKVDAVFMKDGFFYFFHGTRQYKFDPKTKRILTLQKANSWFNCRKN

For CC#CCOc1ccc(S(=O)(=O)C2(C(=O)NO)CCN(S(=O)(=O)C(F)(F)F)CC2)cc1 [Example 69, 4-(4-But-2-ynyloxybenzenesulfonyl)-N-hydroxy-1-[(trifluoromethyl)-sulfonyl]-4-piperidinecarboxamide], the inhibition at 3 µM (THP-1 cells) was 14%, the IC50 (MMP-9) was 1250 nM and the IC50 (MMP-1) was 4 µM.
CC#CCOc1ccc(S(=O)(=O)C2(C(=O)NO)CCN(C(=O)c3cccnc3)CC2)cc1 [Example 70, 4-(4-But-2-ynyloxybenzenesulfonyl)-N-hydroxy-1-(3-pyridinylcarbonyl)-4-piperidinecarboxamide] gave an inhibition at 3 µM (THP-1 cells) of 62%, an IC50 (MMP-9) of 639 nM and an IC50 (MMP-1) of 2.96 µM.
Molecule CC#CCOc1ccc(S(=O)(=O)C2(C(=O)NO)CCN(C(=O)c3cccs3)CC2)cc1 [Example 71, 4-(4-but-2-ynyloxybenzenesulfonyl)-N-hydroxy-1-(2-thienylcarbonyl)-4-piperidinecarboxamide] has an inhibition at 3 µM (THP-1 cells) of 14%, an IC50 (MMP-9) of 811 nM and an IC50 (MMP-1) of 3.12 µM.
In the case of CC#CCOc1ccc(S(=O)(=O)C2(C(=O)NO)CCN(S(=O)(=O)c3ccc(OC)cc3)CC2)cc1 [Example 72, 4-(4-but-2-ynyloxybenzenesulfonyl)-N-hydroxy-1-[(4-methoxyphenyl)-sulfonyl]-4-piperidinecarboxamide], the inhibition at 3 µM (THP-1 cells) is reported as 56%, the IC50 (MMP-9) is reported as 1210 nM and the IC50 (MMP-1) is reported as 4.16 µM.
CC#CCOc1ccc(S(=O)(=O)C2(C(=O)NO)CCN(C(=O)C(C)(CO)CO)CC2)cc1 [Example 74, 4-(4-But-2-ynyloxybenzenesulfonyl)-N-hydroxy-1-[3-hydroxy-2-(hydroxymethyl)-2-methylpropanoyl]-4-piperidinecarboxamide] showed an inhibition at 3 µM (THP-1 cells) of 39%, an IC50 (MMP-9) of 963 nM and an IC50 (MMP-1) of 4.34 µM.
CC#CCOc1ccc(S(=O)(=O)C2(C(=O)NO)CCN(C(=O)OC(C)(C)C)CC2)cc1 [Example 75, Tert-butyl 4-{[4-(2-butynyloxy)phenyl]sulfonyl}-4-[(hydroxyamino)carbonyl-]-1-piperidinecarboxalate] was tested, and the inhibition at 3 µM (THP-1 cells) was -4%, the IC50 (MMP-9) was 1950 nM and the IC50 (MMP-1) was 2.59 µM.
Work on CC#CCOc1ccc(S(=O)(=O)C2(C(=O)NO)CCNCC2)cc1 [Example 76, 4-{[4-(2-butynyloxy)phenyl]sulfonyl}-N-hydroxy-4-piperidinecarboxamide hydrochloride] yielded an inhibition at 3 µM (THP-1 cells) of 26%, an IC50 (MMP-9) of 7890 nM and an IC50 (MMP-1) of 4.5 µM.
In the case of CC#CCOc1ccc(S(=O)(=O)C2(C(=O)NO)CCN(Cc3ccc(C(=O)OC)cc3)CC2)cc1 [Example 77, hydrochloride], the inhibition at 3 µM (THP-1 cells) is reported as 52%, the IC50 (MMP-9) is reported as 149 nM and the IC50 (MMP-1) is reported as 2.19 µM.
Molecule CC#CCOc1ccc(S(=O)(=O)C2(C(=O)NO)CCN(Cc3ccc(C(=O)O)cc3)CC2)cc1 [Example 78, 4-({4-{[4-(2-butynyloxy)phenyl]sulfonyl}-4-[(hydroxyamino)-carbonyl]-1-piperidinyl}methyl)benzoic acid hydrochloride] has an inhibition at 3 µM (THP-1 cells) of 64%, an IC50 (MMP-9) of 364 nM and an IC50 (MMP-1) of 1.05 µM.
CC#CCOc1ccc(S(=O)(=O)C2(C(=O)NO)CCN(Cc3ccc(C(N)=O)cc3)CC2)cc1 [Example 79, 1-[4-(Aminocarbonyl)benzyl]-4-{[4-(2-butynyloxy)phenyl]sulfonyl}-N-hydroxy-4-piperidinecarboxamide hydrochloride] gave an inhibition at 3 µM (THP-1 cells) of 83%, an IC50 (MMP-9) of 129 nM and an IC50 (MMP-1) of 2.42 µM.
Molecule CC#CCOc1ccc([S+]([O-])C2(C(=O)NO)CCN(C(=O)OC(C)(C)C)CC2)cc1 (stereo not drawn) [Example 80, tert-butyl 4-{[4-(but-2-ynyloxy)phenyl]sulfinyl}-4-[(hydroxyamino)carbonyl]piperidine-1-carboxalate] has an inhibition at 3 µM (THP-1 cells) of -7%, an IC50 (MMP-9) of 122 nM and an IC50 (MMP-1) of 186 µM.
With CC#CCOc1ccc([S+]([O-])C2(C(=O)NO)CCNCC2)cc1 (stereo not drawn) [Example 81, 4-(4-(But-2-ynyloxy-benzenesulfinyl)-piperidine-4-carboxylic acid hydroxamide hydrochloride] the inhibition at 3 µM (THP-1 cells) was 25%, the IC50 (MMP-9) was 1040 nM and the IC50 (MMP-1) was 1.88 µM.
In the case of CC#CCOc1ccc([S+]([O-])C2(C(=O)NO)CCN(Cc3ccc(Br)cc3)CC2)cc1 (stereo not drawn) [Example 82, 1-(4-Bromo-benzyl)-4-(4-But-2-ynyloxy-benzenesulfinyl)-piperidine-4-carboxylic acid hydroxamide hydrochloride], the inhibition at 3 µM (THP-1 cells) is reported as 16%, the IC50 (MMP-9) is reported as 125 nM and the IC50 (MMP-1) is reported as 257 µM.
